This passage reports IC50 results from patent publication US20130121994A1, “TRIAZOLOPYRIDINE DERIVATIVES” (BAYER INTELLECTUAL PROPERTY GMBH, priority 2009, published 2013).

Where only a bound is given, the exact number is not on record here.

The assay has as its target T1, human kinase Mps-1 (Homo sapiens, UniProt P33981).
T1 construct: N-terminally GST-tagged human full length recombinant Mps-1 kinase; GST (N); purchased Invitrogen, Karslruhe, Germany PV4071
T1 sequence (P33981 1-857): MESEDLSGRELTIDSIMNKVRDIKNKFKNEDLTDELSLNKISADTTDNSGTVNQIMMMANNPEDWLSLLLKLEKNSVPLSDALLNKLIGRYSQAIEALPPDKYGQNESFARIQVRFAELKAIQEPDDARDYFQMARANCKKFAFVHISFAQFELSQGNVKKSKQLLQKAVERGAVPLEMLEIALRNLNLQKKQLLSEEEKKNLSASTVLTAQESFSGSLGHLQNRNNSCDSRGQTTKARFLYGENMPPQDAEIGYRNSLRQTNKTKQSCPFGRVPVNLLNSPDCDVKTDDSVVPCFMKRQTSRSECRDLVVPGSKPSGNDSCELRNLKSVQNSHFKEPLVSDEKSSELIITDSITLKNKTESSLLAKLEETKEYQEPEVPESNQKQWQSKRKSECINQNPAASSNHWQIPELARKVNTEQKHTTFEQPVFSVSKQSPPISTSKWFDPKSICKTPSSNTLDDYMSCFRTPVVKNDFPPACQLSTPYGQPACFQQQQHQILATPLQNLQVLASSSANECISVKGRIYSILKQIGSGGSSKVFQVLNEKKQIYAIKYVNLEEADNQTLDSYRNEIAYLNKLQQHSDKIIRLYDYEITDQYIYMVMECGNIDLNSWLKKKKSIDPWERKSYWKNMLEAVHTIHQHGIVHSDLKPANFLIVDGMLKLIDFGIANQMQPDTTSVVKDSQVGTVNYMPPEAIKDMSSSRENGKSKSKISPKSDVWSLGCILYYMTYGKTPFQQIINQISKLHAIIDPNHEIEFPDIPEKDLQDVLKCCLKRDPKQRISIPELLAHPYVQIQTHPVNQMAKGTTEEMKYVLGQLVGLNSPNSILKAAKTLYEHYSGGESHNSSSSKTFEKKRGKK
The experiment in a line: Mps-1 kinase assay (HTRF). Format: biochemical. (In general: TR-FRET usually uses a lanthanide donor and a delayed reading to cut background.)

Turning to `CNC(=O)c1ccc(Nc2nc3ccc(-c4cccc(C(=O)NCC(C)(C)C)c4)cn3n2)c(OC)c1` [Example 11.076, 4-[(6-{3-[(2,2-dimethylpropyl)carbamoyl]phenyl}[1,2,4]tria-zolo[1,5-a]pyridin-2-yl)amino]-3-methoxy-N-methylbenzamide], the IC50 (in general, the concentration needed to halve the response being measured) was no more than 1 nM.

The compound `COc1cc(C(=O)NC(C)(C)C)ccc1Nc1nc2ccc(-c3cccc(C(=O)NCC(F)(F)F)c3)cn2n1` [Example 11.077, N-tert-butyl-3-methoxy-4-[(6-{3-[(2,2,2-trifluoroethyl)carbamoyl]phenyl}[1,2,4]triazolo [1,5-a]pyridin-2-yl)amino]benzamide] had an IC50 of no more than 1 nM.

`COc1cc(C(=O)NCCS(C)(=O)=O)ccc1Nc1nc2ccc(-c3cccc(C(=O)NCC(C)(C)C)c3)cn2n1` [Example 11.078, 4-[(6-{3-[(2,2-dimethylpropyl)carbamoyl]phenyl}[1,2,4]tria-zolo[1,5-a]pyridin-2-yl)amino]-3-methoxy-N-[2-(methylsulfonyl)ethyl]benzamide] yielded an IC50 of no more than 1 nM.

`CCNC(=O)c1ccc(Nc2nc3ccc(-c4cccc(C(=O)NCC(C)(C)C)c4)cn3n2)c(OC)c1` [Example 11.079, 4-[(6-{3-[(2,2-dimethylpropyl)carbamoyl]phenyl}[1,2,4]tria-zolo[1,5-a]pyridin-2-yl)amino]-N-ethyl-3-methoxybenzamide] came in with an IC50 of no more than 1 nM.

In turn, `COc1cc(C(=O)NCCS(C)(=O)=O)ccc1Nc1nc2ccc(-c3cccc(C(=O)NCC(F)(F)F)c3)cn2n1` [Example 11.080, 3-methoxy-N-[2-(methylsulfonyl)ethyl]-4-[(6-{3-[(2,2,2-trifluoroethyl)carbamoyl]phenyl}[1,2,4]triazolo [1,5-a]pyridin-2-yl)amino]benzamide] yielded an IC50 of no more than 1 nM.

As to `CCNC(=O)c1ccc(Nc2nc3ccc(-c4cccc(C(=O)NCC(F)(F)F)c4)cn3n2)c(OC)c1` [Example 11.081, N-ethyl-3-methoxy-4-[(6-{3-[(2,2,2-trifluoroethyl)carbamoyl]phenyl}[1,2,4]triazolo [1,5-a]pyridin-2-yl)amino]benzamide], the IC50 was no more than 1 nM.

Take `COc1cc(C(=O)NC(C)(C)C)ccc1Nc1nc2ccc(-c3cccc(C(=O)NCC(C)(C)C)c3)cn2n1` [Example 11.082, N-tert-butyl-4-[(6-{3-[(2,2-dimethylpropyl)carbamoyl]phenyl}[1,2,4]tria-zolo[1,5-a]pyridin-2-yl)amino]-3-methoxybenzamide]: the IC50 was found to be 1.23 nM.

As for `CCNC(=O)c1ccc(Nc2nc3ccc(-c4cccc(C(=O)NCC(F)(F)C(F)(F)F)c4)cn3n2)c(OC)c1` [Example 11.083, N-ethyl-3-methoxy-4-[(6-{3-[(2,2,3,3,3-pentafluoropropyl)carbamoyl]phenyl}[1,2,4]triazolo[1,5-a]pyridin-2-yl)amino]benzamide], the IC50 was no more than 1 nM.

Consider `COc1cc(C(=O)NCC(F)(F)F)ccc1Nc1nc2ccc(-c3cccc(C(=O)NCC(C)(C)C)c3)cn2n1` [Example 11.084, 4-[(6-{3-[(2,2-dimethylpropyl)carbamoyl]phenyl}[1,2,4]tria-zolo[1,5-a]pyridin-2-yl)amino]-3-methoxy-N-(2,2,2-trifluoroethyl)benzamide], for which 1.07 nM corresponded to half-maximal inhibition (IC50).

The compound `CCOc1cc(C(=O)NCCS(C)(=O)=O)ccc1Nc1nc2ccc(-c3cccc(C(=O)NCC(C)(C)C)c3)cn2n1` [Example 11.085, 4-[(6-{3-[(2,2-dimethylpropyl)carbamoyl]phenyl}[1,2,4]tria-zolo[1,5-a]pyridin-2-yl)amino]-3-ethoxy-N-[2-(methylsulfonyl)ethyl]benzamide] registered an IC50 of no more than 1 nM.

Consider `CCOc1cc(C(=O)NCCS(C)(=O)=O)ccc1Nc1nc2ccc(-c3cccc(C(=O)NCC(F)(F)F)c3)cn2n1` [Example 11.086, 3-ethoxy-N-[2-(methylsulfonyl)ethyl]-4-[(6-{3-[(2,2,2-trifluoroethyl)carbamoyl]phenyl}[1,2,4]triazolo [1,5-a]pyridin-2-yl)amino]benzamide], for which the IC50 is no more than 1 nM.
